Measurements taken from paper PMC10217883, “Structure of Leishmania donovani 6-Phosphogluconate Dehydrogenase and Inhibition by Phosphine Gold(I) Complexes: A Potential Approach to Leishmaniasis Treatment” (International Journal of Molecular Sciences, 2023).
Like-named read-outs stand apart in the source and are kept apart here.

How the values were obtained:
Pf6PGD = Pf6PGD (Plasmodium falciparum, UniProt Q8IKT2); assay: Dose-response against recombinant Pf6PGD (NADPH fluorescence); assay type: biochemical
Description: (§1) Dose–response curves of gold(I)-based compounds against Ld6PGD were determined in 96-well plates using a Tecan Infinite M200 plate reader (Tecan, Maennedorf, Switzerland). An amount of 10 mM of each compound was dissolved in 100% DMSO and afterwards diluted in assay buffer to the required concentrations (highest final compound concentration of 100 μM). The DMSO tolerance of the enzymes was determined in advance by incubating the enzymes with up to 6% DMSO and determining their activity. Up to this concentration, no impairment of the enzymes’ catalytic activity was observed. In addition, a DMSO control was included in each measurement.
(§2) Different compound concentrations were added to one volume of enzyme mix (final concentrations: 50 mM Tris (pH 7.5), 0.005% Tween 20, 1 mg∙mL^−1 BSA, 0.7 nM Ld6PGD/0.7 nM Pf6PGD/0.9 nM Hs6PGD) and incubated for ten minutes. […] To increase the sensitivity of the assay, the increase of NADPH was monitored by measuring the fluorescence of NADPH at excitation 340 nm/emission 460 nm (ex340/em460). […] The reaction rate was calculated by dividing the relative fluorescence units (RFU) by time, and only a linear increase in absorbance/fluorescence was considered. IC50 values were calculated using GraphPad Prism 9.0 software and Microsoft Excel.

Ld6PGD [1] = target: T1, Ld6PGD (Leishmania donovani, UniProt Q18L02); assay: Dose-response of gold(I)-based compounds against recombinant Ld6PGD (NADPH fluorescence); assay type: biochemical
Description: as §1
Different compound concentrations were added to one volume of enzyme mix (final concentrations: 50 mM Tris (pH 7.5), 0.005% Tween 20, 1 mg∙mL^−1 BSA, 0.7 nM Ld6PGD/0.7 nM Pf6PGD/0.9 nM Hs6PGD) and incubated for ten minutes. To start the reaction, one volume substrate mix (final concentrations: 50 mM Tris (pH 7.5), 0.005% Tween 20, 1 mg∙mL^−1 BSA, 3.3 mM MgCl2, 25/20/25 µM 6PG, 20 µM NADP^+ for Ld6PGD, Pf6PGD and Hs6PGD) was added to the wells. To increase the sensitivity of the assay, the increase of NADPH was monitored by measuring the fluorescence of NADPH at excitation 340 nm/emission 460 nm (ex340/em460). The substrate mix without 6PG served as a positive control (100% inhibition) and without the compound, but with DMSO as a negative control (100% activity). The assay contained both substrates either in saturation or at concentrations close to KM to facilitate the identification of competitive inhibitors. The reaction rate was calculated by dividing the relative fluorescence units (RFU) by time, and only a linear increase in absorbance/fluorescence was considered. IC50 values were calculated using GraphPad Prism 9.0 software and Microsoft Excel.

Hs6PGD = target: T2, Hs6PGD (Homo sapiens, UniProt P52209); assay: Dose-response against recombinant Hs6PGD (NADPH fluorescence); assay type: biochemical; settings: 25 µM 6PG, 20 µM NADP+, highest concentration 100 µM; read-out: IC50 for recombinant protein Hs6PGD
T2 sequence (P52209 1-483): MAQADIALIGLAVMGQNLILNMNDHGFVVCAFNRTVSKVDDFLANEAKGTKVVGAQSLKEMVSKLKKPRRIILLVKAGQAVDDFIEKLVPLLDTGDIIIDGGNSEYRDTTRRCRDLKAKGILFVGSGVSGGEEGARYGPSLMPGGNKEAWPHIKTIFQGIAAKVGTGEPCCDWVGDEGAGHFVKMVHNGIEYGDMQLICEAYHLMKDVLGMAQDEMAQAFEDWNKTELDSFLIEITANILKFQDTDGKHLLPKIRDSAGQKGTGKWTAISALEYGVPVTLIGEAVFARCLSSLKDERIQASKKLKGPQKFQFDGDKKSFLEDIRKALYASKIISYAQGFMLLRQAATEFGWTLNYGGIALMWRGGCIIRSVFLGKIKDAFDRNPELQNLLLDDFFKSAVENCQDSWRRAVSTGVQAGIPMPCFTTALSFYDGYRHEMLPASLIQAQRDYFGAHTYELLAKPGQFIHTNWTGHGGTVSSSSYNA
Description: as §1, §2

[2] = target: Leishmania donovani 6-phosphogluconate dehydrogenase wild type (Leishmania donovani); assay: SEC; HiLoad 16/60 Superdex 200 in buffer A (500 mM NaCl, 50 mM Tris, pH 7.8); native, with 5 mM DTT, with 2 mM H2O2, with 0.2 mM 6PG, 0.2 mM NADP+ or 0.2 mM NADPH; varying protein concentrations; the dimer peak was the same under all conditions
[3] = target: TR from Leishmania infantum (LiTR); set-up: method as in PMID 21833767; settings: read-out: Ki against recombinant TR from Leishmania infantum (LiTR); cited from earlier work
Ld6PGD [4] = target: T1, Ld6PGD; assay: Reversibility of Ld6PGD inhibition (incubation at high concentration, then dilution); assay type: biochemical
Description: In detail, 14 nM Ld6PGD was incubated with 30 µM auranofin for 10 min at room temperature. […] Afterwards, NADP^+ and 6PG were added to start the reaction, either at substrate saturation (300 µM 6PG, 200 µM NADP^+) or at concentrations close to KM (25 µM 6PG, 20 µM NADP^+). For comparison, controls containing either no inhibitor (100% activity) or inhibitor in the concentration remaining after dilution were prepared. NADPH production was monitored at ex340 nm using the Tecan Infinite M200 plate reader in 96-well plates. Specific activities were calculated from reaction rates. […] Inhibition was considered reversible if the activity of the sample was equal to the controls.

Leishmania parasites = system: Leishmania parasites; set-up: method as in PMID 24328400, PMID 32463611, PMID 33139647; settings: trypanosomatid parasites; cited from earlier work
Ld6PGD [5] = target: T1, Ld6PGD; assay: Mode-of-inhibition study, substrate titration at constant auranofin concentrations (Michaelis-Menten); assay type: biochemical; settings: for Vmax, NADP+ titrated: 6PG in saturation; for Vmax, 6PG titrated: NADP+ in saturation
Description: For the mechanistic characterization of auranofin, either NADP^+ (0–200 µM) or 6PG (0–250 µM) was titrated at different constant compound concentrations around the IC50 (0–30 µM), while keeping the second substrate in saturation (6PG: 300 µM, NADP^+: 200 µM). To determine the compound mode of inhibition, the relationship between initial velocity (v0) and substrate concentrations ([S]) at various constant compound concentrations was analyzed by plotting the data as Michaelis–Menten curves using GraphPad Prism; KM values and Vmax were calculated with GraphPad Prism as well.

CC[P](CC)(CC)=[Au][S][C@@H]1O[C@H](COC(C)=O)[C@@H](OC(C)=O)[C@H](OC(C)=O)[C@H]1OC(C)=O [Auranofin]
IC50 (Pf6PGD): 20.1 ± 1.5 µM | Ki (Ld6PGD [1]): 3.8 ± 0.4 µM | IC50 (Ld6PGD [1]; IC50 against Ld6PGD with 6PG at saturation, enzyme incubated with auranofin and 6PG at saturation): 40.5 ± 1.9 µM | IC50 (Ld6PGD [1]; IC50 for recombinant protein Ld6PGD, substrates close to KM (25 µM 6PG, 20 µM NADP+), 10 min incubation with enzyme): 8.6 ± 1 µM | IC50 (Hs6PGD): > 100 µM

Leishmania donovani 6-phosphogluconate dehydrogenase wild type (enzyme)
stoichiometry N [2]: 2

CC(=O)OC[C@H]1O[C@@H]([S-])[C@H](OC(C)=O)[C@@H](OC(C)=O)[C@@H]1OC(C)=O.CCP(CC)CC.[Au+] [Auranofin]
Ki [3]: 0.155 ± 0.035 µM | Ld6PGD activity of undiluted sample (Ld6PGD [4]; 30 µM auranofin (pre-dilution), substrates at KM): completely inhibited | Reversibility of Ld6PGD inhibition (Ld6PGD [4]; 30 µM pre-dilution, diluted to 3 µM, 10 min each): irreversible | Concentrations at which increase in ROS and apoptotic-like cell death were observed (Leishmania parasites): 10 to 50 µM | Inhibition of Ld6PGD at 50 µM (Ld6PGD [1]; 50 µM auranofin): completely inhibited | IC50 against Ld6PGD with NADP+ at saturation (Ld6PGD [1]; enzyme incubated with auranofin and NADP+ at saturation, compared with IC50 at KM): unaffected | Mode of inhibition against 6PG (Ld6PGD [5]; 6PG titrated, NADP+ 200 µM): mixed type of inhibition | Mode of inhibition against NADP+ (Ld6PGD [5]; NADP+ titrated, 6PG 300 µM): non-competitive inhibition | Vmax, NADP+ titrated (Ld6PGD [5]; auranofin 1.875 µM): 35.9 U/mg | Vmax, 6PG titrated (Ld6PGD [5]; auranofin 1.875 µM): 36.43 U/mg | Vmax, NADP+ titrated (Ld6PGD [5]; auranofin 3.75 µM): 34.45 U/mg | Vmax, 6PG titrated (Ld6PGD [5]; auranofin 3.75 µM): 35.23 U/mg | Vmax, NADP+ titrated (Ld6PGD [5]; auranofin 7.5 µM): 34.92 U/mg | Vmax, 6PG titrated (Ld6PGD [5]; auranofin 7.5 µM): 29.59 U/mg | Vmax, NADP+ titrated (Ld6PGD [5]; auranofin 15 µM): 31.07 U/mg | Vmax, 6PG titrated (Ld6PGD [5]; auranofin 15 µM): 21.59 U/mg | Vmax, NADP+ titrated (Ld6PGD [5]; auranofin 30 µM): 23.34 U/mg | Vmax, 6PG titrated (Ld6PGD [5]; auranofin 30 µM): 7.71 U/mg

[Cl][Au].c1ccc(P(c2ccccc2)c2ccccc2)cc1 [Ph3PAuCl, chloro(triphenylphosphine)gold(I)]
IC50 (Ld6PGD [1]; substrates close to KM (25 µM 6PG, 20 µM NADP+), 10 min incubation with enzyme, read-out: IC50 for recombinant protein Ld6PGD): 2.1 ± 0.3 µM
